# Reference: US9714232B2, “Substituted piperazine compounds and methods of use thereof” (Sunshine Lake Pharma Co., Ltd., priority 2013, dated 2017)
# Experiments:
# [1] = target: serotonin transporter in rat synaptosome (Rattus norvegicus (Rat), UniProt P31652); assay: Inhibitory effect on [3H]5-HT uptake in rat synaptosome; type: biochemical; conditions: rat brain synaptosomes, 0.1 μCi [3H]5-HT, 37° C., 15 minutes
# Procedure: The synaptosomes (150 μg) prepared from a rat brain were incubated at 37° C. for 15 minutes with 0.1 μCi [^3H]5-HT in the absence or presence of the test compound or the reference compound in a buffer solution containing 106.2 mM NaCl, 4.5 mM KCl, 2.25 mM MgSO4, 1.08 mM NaH2PO4, 22.5 mM NaHCO3, 9.9 mM glucose, 9 μM EGTA and 45 μM ascorbic acid (pH 7.4).
# The basal control activity was determined by incubating the same mixture at 4° C. for 15 minutes in the presence of 10 μM imipramine to block the uptake of 5-HT, which was taken as the standard reference compound and tested in each experiment at several concentrations to obtain an inhibition curve.
# Following the incubation, the samples were filtered rapidly under vacuum through glass fiber filters (GF/B, Packard) and rinsed twice with an ice-cold incubation buffer using a 96-sample cell harvester (Unifilter, Packard) to eliminate free [^3H]5-HT. The filters were dried and the retained radioactivity was measured in a scintillation counter (Topcount, Packard) using a scintillation cocktail (Microscint 0, Packard). The experimental results were expressed as a percent inhibition of the control uptake of [^3H]5-HT.
# Inhibition of serotonin transporter in rat synaptosome was measured by the concentrations of [^3H]5-HT.
# human 5-HT1A receptor = human 5-HT1A receptor (Homo sapiens (Human), UniProt P08908); assay: Affinity for human 5-HT1A receptor ([3H]8-OH-DPAT binding, HEK-293 cell homogenates); conditions: 0.3 nM [3H]8-OH-DPAT, human HEK-293 cell homogenates, 22° C., 60 minutes; Ki from IC50 by ChengPrusoff equation
# Chain of human 5-HT1A receptor (P08908 whole entry): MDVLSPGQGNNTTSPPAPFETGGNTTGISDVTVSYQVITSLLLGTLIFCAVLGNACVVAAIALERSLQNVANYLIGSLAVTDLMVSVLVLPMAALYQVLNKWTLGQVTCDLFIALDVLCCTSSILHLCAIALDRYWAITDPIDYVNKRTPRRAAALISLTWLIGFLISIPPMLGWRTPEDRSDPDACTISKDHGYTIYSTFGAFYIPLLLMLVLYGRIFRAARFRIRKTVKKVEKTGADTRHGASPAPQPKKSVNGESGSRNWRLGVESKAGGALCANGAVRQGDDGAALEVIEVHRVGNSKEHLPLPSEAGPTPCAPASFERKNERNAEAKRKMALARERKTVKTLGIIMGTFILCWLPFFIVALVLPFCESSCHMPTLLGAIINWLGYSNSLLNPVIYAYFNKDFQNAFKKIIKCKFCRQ
# Procedure: Human HEK-293 cell homogenates (36 μg protein) were incubated at 22° C. for 60 minutes with 0.3 nM [^3H]8-0H-DPAT (Perkin-Elmer) in the absence or presence of the test compound in a buffer solution containing 50 mM Tris-HCl (pH 7.4), 10 mM MgSO4, 0.5 mM EDTA and 2 μg/ml aprotinine.
# The non-specific binding value was determined by incubating the same mixture in the presence of 10 μM 8-OH-DPAT, which was used as the standard reference compound and tested in each experiment at several concentrations to obtain a competition curve.
# Following the incubation, the samples were filtered rapidly under vacuum through glass fiber filter (GF/B, Packard) presoaked with 0.3% PEI and rinsed several times with ice-cold 50 mM Tris-HCl using a 96-sample cell harvester (Unifilter, Packard). The filters were dried and the retained radioactivity was measured in a scintillation counter (Topcount, Packard) using a scintillation cocktail (Microscint 0, Packard). The experimental results were expressed as a percent inhibition of the control radioligand specific binding.
# Binding assay of [^3H] 8-OH-DPAT (0.3 nM) with 5-HT1A receptor in human HEK-293 cell was tested by scintillation proximity assay of membrane.
# Chain of serotonin transporter in rat synaptosome (P31652 whole entry): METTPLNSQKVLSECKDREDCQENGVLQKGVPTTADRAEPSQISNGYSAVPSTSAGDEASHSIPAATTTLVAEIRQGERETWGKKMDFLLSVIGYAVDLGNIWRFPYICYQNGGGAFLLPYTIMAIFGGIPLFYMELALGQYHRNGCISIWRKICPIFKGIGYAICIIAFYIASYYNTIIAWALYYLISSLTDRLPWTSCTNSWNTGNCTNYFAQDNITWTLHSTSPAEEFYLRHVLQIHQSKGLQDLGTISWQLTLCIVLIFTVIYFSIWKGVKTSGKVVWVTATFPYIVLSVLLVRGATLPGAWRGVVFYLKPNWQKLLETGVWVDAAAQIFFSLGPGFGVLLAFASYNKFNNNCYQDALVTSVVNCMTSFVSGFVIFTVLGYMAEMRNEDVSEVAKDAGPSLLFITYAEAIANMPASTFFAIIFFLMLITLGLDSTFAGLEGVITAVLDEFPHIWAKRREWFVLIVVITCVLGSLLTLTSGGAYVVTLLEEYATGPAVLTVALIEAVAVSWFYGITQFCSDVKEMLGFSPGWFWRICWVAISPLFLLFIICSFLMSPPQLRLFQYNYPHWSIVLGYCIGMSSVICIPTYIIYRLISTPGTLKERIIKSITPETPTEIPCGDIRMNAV
IC50 [1],Ki (human 5-HT1A receptor),SMILES
2.2 nM,1.5 nM,"N#Cc1ccc2[nH]cc(CCCCCN3CCN(c4ccc(-n5cc(F)cc(F)c5=O)cc4)CC3)c2c1 [Example 28, 3-(5-(4-(4-(3,5-difluoro-2-oxopyridin-1(2H)-yl)phenyl)piperazin-1-yl)pentyl)-1H-indole-5-carbonitrile]"
4.3 nM,3.6 nM,"N#Cc1ccc2[nH]cc(CCCN3CCN(c4ccc(-n5ccc6ccccc6c5=O)cc4)CC3)c2c1 [Example 30, 3-(3-(4-(4-(1-oxoisoquinolin-2(1H)-yl)phenyl)piperazin-1-yl)propyl)-1H-indole-5-carbonitrile]"
4.2 nM,0.1 nM,"N#Cc1ccc2[nH]cc(CCCN3CCN(c4ccc(-n5ccc6occc6c5=O)cc4)CC3)c2c1 [Example 34, 3-(3-(4-(4-(4-oxofuro[3,2-c]pyridin-5 (4H)-yl)phenyl)piperazin-1-yl)propyl)-1H-indole-5-carbonitrile]"
0.8 nM,0.8 nM,"N#Cc1ccc2[nH]cc(CCCCN3CCN(c4ccc(-n5ccncc5=O)cc4)CC3)c2c1 [Example 35, 3-(4-(4-(4-(2-oxopyrazin-1(2H)-yl)phenyl)piperazin-1-yl)butyl)-1H-indole-5-carbonitrile]"
1.8 nM,3 nM,"N#Cc1ccc2[nH]cc(CCCN3CCN(c4ccc(-n5ccncc5=O)cc4)CC3)c2c1 [Example 36, 3-(3-(4-(4-(2-oxopyrazin-1(2H)-yl)phenyl)piperazin-1-yl)propyl)-1H-indole-5-carbonitrile]"
1.3 nM,1.3 nM,"N#Cc1ccc2[nH]cc(CCCCN3CCN(c4ccc(N5CCCNC5=O)cc4)CC3)c2c1 [Example 37, 3-(4-(4-(4-(2-oxotetrahydropyrimidin-1(2H)-yl)phenyl)piperazin-1-yl)butyl)-1H-indole-5-carbonitrile]"
1.4 nM,1.9 nM,"N#Cc1ccc2[nH]cc(CCCN3CCN(c4ccc(N5CCCNC5=O)cc4)CC3)c2c1 [Example 38, 3-(3-(4-(4-(2-oxotetrahydropyrimidin-1(2H)-yl)phenyl)piperazin-1-yl)propyl)-1H-indole-5-carbonitrile]"

SMILES,IC50 [1],Ki (human 5-HT1A receptor)
"N#Cc1ccc2[nH]cc(CCCCN3CCN(c4ccc(-n5ccc6ncccc6c5=O)cc4)CC3)c2c1 [Example 31, 3-(4-(4-(4-(5-oxo-1,6-naphthyridin-6(5H)-yl)phenyl)piperazin-1-yl)butyl)-1H-indole-5-carbonitrile]",0.23 nM,0.5 nM
"N#Cc1ccc2[nH]cc(CCCN3CCN(c4ccc(-n5ccc6ncccc6c5=O)cc4)CC3)c2c1 [Example 32, 3-(3-(4-(4-(5-oxo-1,6-naphthyridin-6(5H)-yl)phenyl)piperazin-1-yl)propyl)-1H-indole-5-carbonitrile]",0.93 nM,1.7 nM
"N#Cc1ccc2[nH]cc(CCCCN3CCN(c4ccc(-n5ccc6occc6c5=O)cc4)CC3)c2c1 [Example 33, 3-(4-(4-(4-(4-oxofuro[3,2-c]pyridin-5 (4H)-yl)phenyl)piperazin-1-yl)butyl)-1H-indole-5-carbonitrile]",0.53 nM,0.14 nM
